As usually defined, the IC50 is the point on the concentration scale where inhibition reaches its midpoint. A lower IC50 goes with inhibition by little substance.

The assay addresses T1, Alpha-galactosidase A (Homo sapiens, UniProt P06280).
T1 sequence (P06280 whole entry): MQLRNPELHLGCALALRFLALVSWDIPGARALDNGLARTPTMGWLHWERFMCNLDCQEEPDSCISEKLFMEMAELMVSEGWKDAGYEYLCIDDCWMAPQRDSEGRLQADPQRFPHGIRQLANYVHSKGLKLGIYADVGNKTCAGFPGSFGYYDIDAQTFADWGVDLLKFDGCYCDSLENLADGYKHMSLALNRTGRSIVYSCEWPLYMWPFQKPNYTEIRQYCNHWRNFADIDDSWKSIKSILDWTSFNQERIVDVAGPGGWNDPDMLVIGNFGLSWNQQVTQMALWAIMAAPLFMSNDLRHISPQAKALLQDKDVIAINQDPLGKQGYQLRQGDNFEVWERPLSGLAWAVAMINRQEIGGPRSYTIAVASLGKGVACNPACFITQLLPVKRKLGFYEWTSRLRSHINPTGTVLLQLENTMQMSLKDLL
The experiment in a line: α-Gal A Assay.

Structures are written as SMILES.

Turning to `CSc1ccc(NC(=S)N2C[C@H](O)[C@@H](O)[C@@H](O)[C@H]2CO)cc1` [DGJ-pMe SPhT], the 50% inhibitory concentration (IC50) came to 8.3 nM (pH 5) and 1.4 nM (pH 7).
The like results for `OC[C@@H]1[C@H](O)[C@H](O)[C@@H](O)CN1C(=S)NCc1ccccc1` [DGJ-BnT] were, in that order, 20300 nM and 4410 nM.
The like results for `OC[C@@H]1[C@H](O)[C@H](O)[C@@H](O)CN1C(=S)Nc1ccc(F)cc1` [DGJ-pF PhT] were, in that order, 340 nM and 43 nM.
The like results for `OC[C@@H]1[C@H](O)[C@H](O)[C@@H](O)CN1C(=S)Nc1cccc2ccccc12` [DGJ-NphT] were, in that order, 1600 nM and 370 nM.
In the case of `O[C@@H]1[C@@H](O)CN2/C(=N\c3ccc(F)cc3)SCC2[C@@H]1O` (some centres not stated) [pF PhIM-DGJ], the IC50 amounted to 9670 nM (pH 5) and 2180 nM (pH 7).
The like results for `COc1ccc(NC(=S)N2C[C@H](O)[C@@H](O)[C@@H](O)[C@H]2CO)cc1` [DGJ-pMe OPhT] were, in that order, 74 nM and 16 nM.

(Values after BindingDB's records for doi:10.1021/cb500143h (Tottori University , Yonago 683-8503, Japan, 2014).)
